# Source: patent US12122833B2, “Combination therapies of HDAC inhibitors and PD-1 inhibitors” (HUYABIO International, LLC, priority 2016, dated 2024)
# What was measured:
# [1] = test system: 4T1 murine mammary carcinoma; assay: Example 4: lung metastatic foci count, orthotopic 4T1 murine mammary carcinoma in BALB/c mice; assay type: in vivo, mouse; details: day 14; HBI-8000 50 mg/kg p.o. qd×13; anti-PD-1 5 mg/kg i.p. biwk×2; vs vehicle control (35.0±2.17 foci)
# Protocol: In this Example 4, antitumor responses induced by HBI-8000, administered alone and in combination with anti-PD-1 RMP1-14 (anti-PD-1) were characterized in the 4T1 murine mammary carcinoma xenograft model in BALB/c mice. The impact of these therapies on lung metastasis was evaluated.
# Treatments began on Day (D) 1 in BALB/c mice bearing established 4T1 tumors. HBI-8000 was administered orally (p.o.) and anti-PD-1 was administered intraperitoneally (i.p.), at a single dose level. Test agents were administered alone and in combination with HBI-8000. Control animals received vehicle. The study ended on D14 as the endpoint for metastatic foci was reached. Treatment response was determined based on metastases counts taken from animals remaining on D14.
# In Vivo Implantation and Tumor Growth: 4T1 tumor cells were harvested during exponential growth and resuspended in PBS. […] Tumor growth was monitored as the average size of tumors approached the target range of 80-120 mm3. […]
# Results were analyzed by counting the lung metastatic foci on D14, the last day of the study. […] Percent inhibition was defined as the difference between the number of metastatic foci of the designated control group and the number of metastatic foci of the drug-treated group, expressed as a percentage of the number of metastatic foci of the designated control group: […]
# [2] = test system: MC38 murine colon carcinoma cells; assay: Example 1: tumor growth delay, MC38 murine colon carcinoma in C57BL/6 mice; assay type: in vivo, mouse; details: for Median TTE: endpoint 1000 mm^3 or Day 47, n=10; for % TGD: vs vehicle
# Protocol: In the present example, HBI-8000 was tested as monotherapy and in combination with anti-PD-1 at 5 mg/kg. The experiment included a vehicle-treated group, and a PD-1 inhibitor antibody monotherapy group, which served as the control groups for analysis of efficacy. Tumors were measured twice per week until the study was ended on Day 47. Each animal was euthanized when its tumor attained the endpoint tumor volume of 1000 mm^3 or on the final day of the study, whichever came first, and the time to endpoint (TTE) for each mouse was calculated. Treatment response was determined from an analysis of percent tumor growth delay (% TGD), defined as the percent increase in the median time to endpoint (TTE) for treated versus control mice; and by log rank significance of differences in survival among groups and regression responses.
# Mice: Female C57BL/6 mice (Charles River Laboratories) were eight weeks old, with a body weight (BW) range of 15.4 to 22.0 grams on Day 1 of the study. The animals were fed ad libitum water (reverse osmosis, 1 ppm Cl), and NIH 31 Modified and Irradiated Lab Diet® consisting of 18.0% crude protein, 5.0% crude fat, and 5.0% crude fiber. The mice were housed on irradiated Enrich-o'Cobs™ Laboratory Animal Bedding in static microisolators on a 12-hour light cycle at 20-22° C. (68-72° F.) and 40-60% humidity.
# Tumor Cells: MC38 murine colon carcinoma cells were maintained in Dulbecco's Modified Eagle Medium (DMEM) supplemented with 10% fetal bovine serum and 2 mM glutamine, 100 units/mL penicillin G sodium, […] streptomycin sulfate, and 25 μg/mL gentamicin. Cell cultures were maintained in tissue culture flasks in a humidified incubator at 37° C., in an atmosphere of 5% CO2 and 95% air.
# Tumor Implantation: Cells were harvested during exponential growth, and resuspended in cold DMEM. Each mouse was inoculated subcutaneously in the right flank with 1×10^6 cells (0.1 mL of cell suspension). Tumors were calipered in two dimensions to monitor growth as their mean volume approached the desired 100-150 mm^3 range. Tumor burden was calculated using the formula:
# [formula] where w=width and l=length, in mm, of the tumor. Tumor weight may be estimated with the assumption that 1 mg is equivalent to 1 mm^3 of tumor volume. Fourteen days after tumor implantation, which was designated as Day 1 of the study, animals with individual tumor volumes from 75 to 221 mm^3 were sorted into eleven groups (n=10/group) with group mean tumor volume of 130-133 mm^3. […]
# Tumor Growth Delay: Tumors were measured using calipers twice per week, and each animal was euthanized when its tumor reached a volume of 1000 mm^3 or at the end of the study (D47), whichever came first. […] The time to endpoint (TTE) for analysis was calculated for each mouse by the following equation: […]
# [3] = HBI-8000 20 mg/kg p.o. qd×21, alone or plus anti-PD-1 5 mg/kg i.p. biwk×3
# [4] = HBI-8000 50 mg/kg p.o. qd×21, alone or plus anti-PD-1 5 mg/kg i.p. biwk×3
smiles,measurement,setting,value
"Nc1cc(F)ccc1NC(=O)c1ccc(CNC(=O)/C=C/c2cccnc2)cc1 [HBI-8000, N-(2-amino-4-fluorophenyl)-4-[[[(2E)-1-oxo-3-(3-pyridinyl)-2-propen-1-yl]amino]methyl]benz amide]",inhibition of lung metastatic foci,[1],−26%
same,Median TTE,[2]; [3],18.9 days
same,% TGD,[2]; [3],−8%
same,Median TTE,[2]; [4],22.8 days
same,% TGD,[2]; [4],11%
